Measured values reported in patent publication US8332025B2, “Method and system for detecting electrophysiological changes in pre-cancerous and cancerous tissue and epithelium” (Epi-Sci, LLC, priority 2005, dated 2012).
Read-outs that look alike come from different tables or passages of the source.

Key:
[1] = tested on: benign breast epithelial cells; test: Cell membrane potential, potentiometric fluorescent probe (FIG. 7), benign cells; type: cell-based, human; settings: estradiol added to the culture media; approximately −50 mV in its absence
Experimental: (§1) Measurements were made using a potentiometric fluorescent probe, and ratiometric measurements, which are calibrated using valinomycin and [K^+]-gradients. Ψs were measured in the presence (closed circles) and absence (open circles) of estradiol (the active, metabolite of estrogen). Each symbol is the mean measurement. The upper error bar is the standard error of the mean, and the lower error bar is the 95% confidence level for the observations. The addition of estrogen to cultured breast epithelial cells results in an instantaneous increase in Ψ (data not shown) as well as the transepithelial potential see. FIG. 8. Transepithelial potential (VT) of an epithelium is the sum of the apical (luminal) cell membrane potential (VA) and the basolateral (abluminal) cell membrane potential (VBL). Therefore VT=VA+VBL (changes in VA and/or VBL will therefore alter VT or transepithelial potential). […] Malignant and transformed cells have a Ψ of between −31 and −35 mV in the absence of estradiol and approximately 50 mV when estradiol is present in the culture medium.

[2] = tested on: Malignant and transformed cells; test: Cell membrane potential, potentiometric fluorescent probe (FIG. 7), malignant and transformed cells; type: cell-based, human; settings: estradiol present in the culture medium; −31 to −35 mV in its absence
Experimental: as §1

[3] = tested on: benign human breast epithelial cells; test: Transepithelial potential of monolayers in Ussing chambers (FIG. 8), benign epithelia; type: cell-based; settings: increasing doses 0 to 0.8 μM
Experimental: (§2) It should be noted, that the instantaneous response, illustrated in FIG. 8, is greater in malignant epithelia, whereas the chronic or sustained exposure to estradiol results in a lower increase in TEP (transepithelial, electropotential) in malignant cells. Concurrent measurement of surface electropotential and impedance allow the more accurate diagnosis of cancer. […] The cells were grown, as monolayers on Millipore filters and grew to confluence in 7 to 10 days. The epithelia were then mounted in modified Using chambers and the TEP was measured using a voltage clamp. Increasing doses of estradiol between 0 and 0.8 μM were added (x-axis). The transepithelial potential was measured after each addition and the TEP was measured (y-axis). The different dose response is apparent for benign and malignant epithelia. Malignant epithelia have a lower TEP but undergo an instantaneous increase in TEP of approximately 9 mV (becomes more electronegative and reaches a level of <−6 mV) after exposure to only 0.1 μM estradiol and then depolarize to approximately −2 mV with increasing doses of estradiol up to about 0.5 μM. […] 0.3 μM and then remain persistently elevated (higher electro negativity), unlike the malignant epithelia, with increasing doses of estradiol.

[4] = tested on: malignant human breast epithelial cells; test: Transepithelial potential of monolayers in Ussing chambers (FIG. 8), malignant epithelia; type: cell-based
Experimental: as §2

[5] = tested on: apical K+ channels of human colonic mucosa; test: Short circuit current of human colonic epithelium ex-vivo (FIG. 12); settings: 30 mM mucosal; normal colon; 0.1 mM amiloride; elevated serosal K+
Experimental: The potassium permeability of the apical membrane of human colonic mucosa (P^Ka) was determined in surgical specimens of controls and grossly normal-appearing mucosa obtained 10-30 cm proximal to colorectal adenocarcinomas. The mucosa was, mounted in Using chambers and the basolateral, membrane resistance and voltage were nullified by elevating the K^+ in the serosal bathing solution. The apical sodium (Na^+) conductance was blocked with 0.1 mM amiloride. This protocol reduces the equivalent circuit model of the epithelium to an apical membrane conductance and electromotive force in parallel with the paracellular pathway as has been verified by microelectrode studies. […] In cancer-bearing colon the reduction in Isc is to −65 μA/cm^2. The serosal bath was remained constant at 125 mM [K].

[6] = tested on: breast epithelium; settings: 20 μM luminal, cited from earlier work
[7] = tested on: colonocyte cell membrane; settings: cited from earlier work
[8] = tested on: distal colon; test: Transepithelial potential (VT) of colon during treatment; type: in vivo, CF1 mice; settings: administered over the same period (four weeks)

Q: What does the source list for C[C@]12CC[C@@H]3c4ccc(O)cc4CC[C@H]3[C@@H]1CC[C@@H]2O [estradiol, 17-β-estradiol]?
A: cell membrane potential (Ψ) [1]: ~−70 mV; cell membrane potential (Ψ) [2]: approximately 50 mV; dose at which the TEP response peaks [3]: ~0.3 µM; TEP level reached ([4]; 0.1 μM): < −6 mV; instantaneous increase in TEP ([4]; 0.1 μM): approximately 9 mV; TEP after depolarization with increasing doses ([4]; up to about 0.5 μM): approximately −2 mV

Q: For CC[N+](CC)(CC)CC [TEA], which “effect on short circuit current (Isc)” value [5] is on record?
A: abrupt increase in Isc

Q: With N=C(N)NC(=O)c1nc(Cl)c(N)nc1N [amiloride] as the molecule, how does the “increase in transepithelial resistance” value [6] read?
A: 17%

Q: And the “depolarization of the transepithelial potential (change)” value ([6]; from −5.9±0.5 mV, mean±SEM)?
A: +3.1±0.5 mV

Q: Which “VA (apical membrane voltage)” value ([7]; after 6 weeks of treatment, from −74.9 mV) does the source give for CNNC [DMH, 1,2 dimethylhydrazine] here?
A: −61.4 mV

Q: And the “VA (apical membrane voltage)” value ([7]; by 20 weeks of treatment)?
A: −34 mV

Q: For O=c1[nH]cc(F)c(=O)[nH]1 [5-fluorouracil], which “effect on transepithelial potential (VT)” value [8] is on record?
A: did not cause a reduction in VT
